Assay results reported in article PMC6389962 (Nature Communications, 2019).
Starred links: 1 amine or outer side, 2 acyl side, 3 side chain; linkers in the order of their positions; H or OH if unused. Positions of bridges follow the written chain, without caps; N, C: chain ends. Residues, ends and D or L forms follow the SMILES beside them. Chains are numbered I, II in the order given. X3 = C[C@@H](CNC(=O)[*:1])NC(=O)NC[C@H](CCC(=O)O)NC(=O)NC[C@H](Cc1ccc(O)cc1)N[*:2]

Columns and labels:
normal mice (C57BL/6J) = test: Blood glucose study in normal fed mice; assay type: in vivo, mouse; parameters: key to In vivo activity (indicator): + active; +++: + + + more active
Procedure: In the first study, we evaluated the effect of the analogues on the blood glucose concentration of normal mice (Fig. 3). The fed mice were treated with the analogues and their blood glucose concentration was monitored before and after dosing for 6 h. […] Indeed, a decrease of blood glucose concentration is observed after 30 min and the effect is preserved for 4 h after dosing.
Fig. 3 Blood glucose study in mice. a–c Blood glucose concentration in normal mice (C57BL/6J, male, 20–25 g, n = 3) before and after dosing: 5 μg per mouse (50 nmol kg^−1) i.v. Formulation: 20 μg mL^−1 in PBS 1×. The dosing was done at T0. Data are mean ± SEM. […] Source data are provided as a Source Data file
After the acclimation period (at least 5 days), mice (male C57BL/6J mice (Charles River laboratories) 8 weeks old, 20–25 g) were randomized into 10 groups (n = 3 per group) according to their body weight. They were acutely treated via i.v. route at 10 am (5 µg per mouse). Blood glucose was measured before dosing and at 30 min, 1, 2, 4, 6 h after dosing in fed conditions.

mouse GLP-1 receptor [1] = molecular target: T1, mouse GLP-1 receptor (Mus musculus, UniProt O35659)
T1 sequence (O35659 22-463): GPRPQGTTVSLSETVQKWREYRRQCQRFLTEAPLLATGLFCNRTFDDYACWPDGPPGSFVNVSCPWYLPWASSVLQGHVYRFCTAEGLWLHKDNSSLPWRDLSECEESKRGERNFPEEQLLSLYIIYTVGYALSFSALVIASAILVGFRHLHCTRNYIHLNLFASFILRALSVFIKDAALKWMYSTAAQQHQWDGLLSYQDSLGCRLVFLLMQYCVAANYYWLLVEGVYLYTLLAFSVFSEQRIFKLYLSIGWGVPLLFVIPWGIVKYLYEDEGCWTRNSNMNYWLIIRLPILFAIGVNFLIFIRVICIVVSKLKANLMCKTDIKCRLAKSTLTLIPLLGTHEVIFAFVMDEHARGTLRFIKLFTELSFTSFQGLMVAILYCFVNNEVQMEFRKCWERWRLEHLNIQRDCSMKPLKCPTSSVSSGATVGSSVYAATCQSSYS

in vitro [2] = conditions: mouse, plasma, pH 7.4, % remaining analogue
Procedure: The oligomer was then diluted 1/50 with a solution of plasma/PBS pH 7.4 (1:1) to afford a final concentration of 5 µM and incubated at 37 °C (4 µL of the stock solution was diluted with 196 µL of plasma/PBS, pH 7.4, 1:1). Each compound was also incubated in the absence of plasma (196 µL of H2O/PBS, pH 7.4, 1:1). At the indicated time (20 min and 60 min) an aliquot of 70 µL was removed from each experimental reaction and pipetting into 175 µL of acetonitrile at 0 °C to quench the reaction (t = 0 min was determined using the reaction without plasma). The samples were frozen at –80 °C before analysis. The frozen samples were defrosted, stirred with a vortex 5 min and finally centrifuged 5 min at 16 °C (1500 × g). The supernatant was analysed by LC-MS. The time course of oligomer degradation was determined by integrating the area of the peak in the extracted ion chromatogram.
Supplementar y Figur e 2 : Mouse plasma degradation assay. […] Data are
mean ± SEM, n = 4. Source data are provided as a Source Data file (T able 2 tab).
Supplementar y Figur e 3.
Data are mean ± SEM, n = 3.
Source data are provided as a Source Data file […]

in vitro [3] = conditions: isolated enzyme neprilysin, pH 8
Procedure: Stock solutions of the oligomers were prepared at a concentration of 400 µM in a solution of 50 mM HEPES buffer, 50 mM NaCl, 0.05% Tween-80, pH 8.0. Stock solution of NEP 24.11 was prepared at a concentration of 100 µg mL^−1 in water. Stability of oligomers to NEP 24.11 was assessed by conducting protease reaction in a 96-well plates at 20 °C. […] Each compound was also incubated in the absence of the enzyme (12 µL of HEPES buffer and 38 µL of oligomer). […] A portion of the quenched reaction solution was analysed by HPLC. The time course of peptide degradation was determined by integrating the area of each peak in a series of HPLC traces.

mouse GLP-1 receptor [4] = molecular target: T1, mouse GLP-1 receptor; test: cell-based
db/db mice = test: Blood glucose study in db/db mice; assay type: in vivo, mouse; conditions: n = 5, 200 μg kg−1 (50 nmol kg−1) intraperitoneal, fed
Source text: Data are mean ± SEM. […] Source data are provided as a Source Data file

Structure (SMILES)	In vivo activity (indicator) (normal mice (C57BL/6J); mice, 50 nmol kg−1 i.v.)	effect on blood glucose concentration (normal mice (C57BL/6J); normal fed C57BL/6J mice, n = 3, 5 μg per mouse (50 nmol kg−1) i.v., monitored 6 h)	LogEC50 (best-fit value) (mouse GLP-1 receptor [1])	Potency (%), percentage of potency compare to GLP-1-G^2 (mouse GLP-1 receptor [1]; cAMP production, from EC50) [%]	remaining at 20 min, 5 µM (in vitro [2]) [%]	remaining at 1 h, 5 µM (in vitro [2]) [%]	half-life (in vitro [3]) [h]	EC50 (mouse GLP-1 receptor [4]) [pM]	Emax (mouse GLP-1 receptor [4]; read-out: Top (best-fit value), variable slope four-parameter fit, unconstrained, 14: experiment 1) [%]	activity on blood glucose 48 h after a single dose (db/db mice)
CC[C@H](C)[C@H](NC(=O)[C@H](Cc1ccccc1)NC(=O)[C@H](CCC(=O)O)NC(=O)[C@H](CCCCN)NC(=O)[C@H](C)NC(=O)[C@H](C)NC(=O)NC[C@H](C)NC(=O)NC[C@H](CCC(=O)O)NC(=O)NC[C@H](Cc1ccc(O)cc1)NC(=O)[C@H](Cc1ccc(O)cc1)NC(=O)[C@H](CO)NC(=O)[C@H](CO)NC(=O)[C@@H](NC(=O)[C@H](CC(=O)O)NC(=O)[C@H](CO)NC(=O)[C@@H](NC(=O)[C@H](Cc1ccccc1)NC(=O)[C@@H](NC(=O)CNC(=O)[C@H](CCC(=O)O)NC(=O)CNC(=O)[C@@H](N)Cc1c[nH]cn1)[C@@H](C)O)[C@@H](C)O)C(C)C)C(=O)N[C@@H](C)C(=O)N[C@@H](Cc1c[nH]c2ccccc12)C(=O)N[C@@H](CC(C)C)C(=O)N[C@H](C(=O)N[C@@H](CCCCN)C(=O)NCC(=O)N[C@@H](CCCNC(=N)N)C(=O)NCC(N)=O)C(C)C [compound 9, GG2[Y^uE^uA^u]^14-17] (I: AAKEFIAWLVKGRG-NH2 / II: H-HGEGTFTSDVSSY; linker I:N-II:C via X3)	+	showed efficacy but no improvement	-9.749	135	33.1	11.7	3	180	88.2	
CCCCCCCCCCCCCCCC(=O)N[C@@H](CCC(=O)NCCCC[C@H](NC(=O)[C@H](C)NC(=O)[C@H](C)NC(=O)[C@H](CCC(N)=O)NC(=O)CNC(=O)[C@H](CCC(=O)O)NC(=O)[C@H](CC(C)C)NC(=O)[C@H](Cc1ccc(O)cc1)NC(=O)[C@H](CO)NC(=O)[C@H](CO)NC(=O)[C@@H](NC(=O)[C@H](CC(=O)O)NC(=O)[C@H](CO)NC(=O)[C@@H](NC(=O)[C@H](Cc1ccccc1)NC(=O)[C@@H](NC(=O)CNC(=O)[C@H](CCC(=O)O)NC(=O)[C@H](C)NC(=O)[C@@H](N)Cc1c[nH]cn1)[C@@H](C)O)[C@@H](C)O)C(C)C)C(=O)N[C@@H](CCC(=O)O)C(=O)N[C@@H](Cc1ccccc1)C(=O)N[C@H](C(=O)N[C@@H](C)C(=O)N[C@@H](Cc1c[nH]c2ccccc12)C(=O)N[C@@H](CC(C)C)C(=O)N[C@H](C(=O)N[C@@H](CCCNC(=N)N)C(=O)NCC(=O)N[C@@H](CCCNC(=N)N)C(=O)NCC(=O)O)C(C)C)[C@@H](C)CC)C(=O)O [liraglutide]										no more significant activity
